Here are results for one compound from article PMC2409895, “Antitumour efficacy of VEGFR2 tyrosine kinase inhibitor correlates with expression of VEGF and its receptor VEGFR2 in tumour models” (British Journal of Cancer, 2004).

One series can be described thus: Protein binding. In kind it is in vitro ADME. The settings on record: mouse, plasma; used to calculate free Cmax in mice.
For a further series, the target named is T1, human VEGFR kinase 3 (Homo sapiens, UniProt P35916).
T1 construct: GST-fusion protein encoding the catalytic carboxyl-terminus of human VEGFR kinase 1, 2, or 3; made in house; host or cells: baculovirus expression system
The experiment in a line: VEGFR3 kinase assay (HTRF). In kind it is biochemical. How it is done:
(§1) Vascular endothelial growth factor receptor kinase assays were carried out in a homogenous time-resolved fluorescence (HTRF) format in 384-well microtitre plates using a purified, baculovirus-expressed GST-fusion protein encoding the catalytic carboxyl-terminus of human VEGFR kinase 1, 2, or 3. Reactions were initiated by the addition of 10 μl of activated VEGFR kinase (1 nM, 0.1 M HEPES pH 7.5, 0.1 mg ml^−1 BSA, and 0.30 mM DTT) to 10 μl of substrate (360 nM biotin-aminohexyl-EEEEYFELVAKKKK-NH2 peptide, 75 μM ATP, 10 mM MgCl2) and 1 μl of small molecule inhibitor at various concentrations. Plates were incubated at room temperature for 60 min, and the reaction was stopped by the addition of 20 μl 100 mM EDTA. Homogenous time-resolved fluorescence reagents (20 μl 15 nM streptavidin-linked allophycocyanin, 1 nM europium-labelled anti-phosphotyrosine antibody in 0.1 M HEPES, pH 7.5, 0.1 mg ml^−1 BSA) were added and plates were incubated for a minimum of 10 min. The fluorescence at 665 nm was measured with a Victor plate reader (Wallac, Shelton, CT, USA) using a time delay of 50 μs. […] Data were fitted with a curve described by: y=((Vmax × x)/(K+x)+Y2), where Vmax is the upper asymptote, Y2 is the Y intercept, and K is the IC50.
In general terms: In TR-FRET formats the signal depends on donor and acceptor labels being close together.

Another series has as its target T2, Eph-B4 (Homo sapiens, UniProt P54760).
T2 construct: Each kinase assay was conducted using purified recombinant catalytic domain of the enzyme
T2 sequence (P54760 615-899 limits assumed): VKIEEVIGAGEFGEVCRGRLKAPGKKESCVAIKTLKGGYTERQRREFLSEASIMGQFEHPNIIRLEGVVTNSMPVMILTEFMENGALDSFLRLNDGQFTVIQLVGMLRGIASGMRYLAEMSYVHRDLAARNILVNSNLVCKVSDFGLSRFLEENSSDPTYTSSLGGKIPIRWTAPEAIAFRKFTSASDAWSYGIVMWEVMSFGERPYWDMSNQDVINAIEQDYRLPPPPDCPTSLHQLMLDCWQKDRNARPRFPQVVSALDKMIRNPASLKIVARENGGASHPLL
Description: Eph-B4 kinase assay (scintillation proximity). In kind it is biochemical. How it is done: (§2) Inhibition of several other kinases by small molecules was also determined. Each kinase assay was conducted using purified recombinant catalytic domain of the enzyme. The concentration of ATP and kinase-specific biotinylated peptide in each assay was below the apparent Km of the respective substrate. Inhibition of c-Fms, SRC, and Tie-2 was evaluated by an HTRF format and the inhibition of CDK2, CDK4, EGFR, ErbB2, and Eph-B4 was detected by scintillation proximity assay.
(In a scintillation proximity assay essentially only radioactivity close to the scintillant gives light.)

A further series deals with A375P xenograft. The experiment in a line: A375P tumour xenograft growth inhibition. The settings on record: for % Inhibition of tumour growth: vs vehicle. In kind it is in vivo, nude mice. How it is done: (§3) Tumours were initiated by injection of tumour cell suspension subcutaneously in 8–12-week-old nude mice, except PC3 tumours that were grown in SCID mice (Charles River Laboratories, Wilmington, MA, USA). When tumours reached a volume of 100–200 mm^3, mice were randomised into groups of eight prior to treatment with VEGFR kinase inhibitors. Animals were treated with kinase inhibitors (10, 30, or 100 mg kg^−1) or vehicle (0.5% hydroxypropyl methyl cellulose, 0.1% Tween 80 in sterile water), administered once or twice daily by oral gavage for 2–3 weeks (till the mean tumour volume reached 1000–1500 mm^3). Tumour volume was measured twice weekly by calipers, using the formula (length × width × width × 0.5), where length was the longest diameter across the tumour, and width was the corresponding perpendicular. Tumour growth inhibition was calculated by change in the slopes of tumour growth for control and treated tumours. The oral dose of GW654652 producing 50% inhibition of tumour growth (ED50, mg kg^−1) was estimated by a programme that performed a weighted nonlinear regression analysis of data using the equation: y=Vmax(1−(x/(K+x))), where K is equal to ED50. All animal studies were carried out with the appropriate institutional ethical committee approval and they met the standards of both the US federal regulations and those required by the UKCCCR guidelines ([Workman et al, 1998]).

In another series the test system is HN5 xenograft. The experiment in a line: HN5 tumour xenograft growth inhibition. In kind it is in vivo, nude mice. The settings on record: for % Inhibition of tumour growth: vs vehicle. The method, then: as §3
The target of a further series is T3, c-Fms (Homo sapiens, UniProt P07333).
T3 construct: Each kinase assay was conducted using purified recombinant catalytic domain of the enzyme
T3 sequence (P07333 582-910 limits assumed): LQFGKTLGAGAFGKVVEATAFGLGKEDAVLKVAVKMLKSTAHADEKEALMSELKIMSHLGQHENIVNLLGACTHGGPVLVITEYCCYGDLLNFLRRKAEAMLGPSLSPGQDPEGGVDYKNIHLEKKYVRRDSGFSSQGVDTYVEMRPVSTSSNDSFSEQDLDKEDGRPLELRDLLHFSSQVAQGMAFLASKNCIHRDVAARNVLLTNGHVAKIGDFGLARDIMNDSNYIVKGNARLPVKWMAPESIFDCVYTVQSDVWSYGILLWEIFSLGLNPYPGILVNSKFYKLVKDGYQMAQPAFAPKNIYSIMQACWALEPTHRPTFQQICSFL
Description: c-Fms kinase assay (HTRF). In kind it is biochemical. How it is done:
as §2

Series [1] relates to HUVEC grown in presence of VEGF. The experiment in a line: VEGF-induced HUVEC proliferation (BrdU incorporation). Particulars: Homo sapiens, VEGF 10 ng ml^−1, 72 h. In kind it is cell-based. The method, then:
Effect of kinase inhibitors on cell proliferation was measured using BrdU incorporation method using commercially available kits (Roche Diagnostics, Indianapolis, IN, USA). Briefly, HUVEC were seeded in a medium containing 5% FBS in type 1 Collagen-coated 96-well plates and incubated overnight at 37°C, 5% CO2. The medium was aspirated from the cells, and various concentrations of kinase inhibitors in serum-free medium were added to each well. After 30 min, VEGF (10 ng ml^−1) or bFGF (0.3 ng ml^−1) was added to the wells. Cells were incubated for an additional 72 h and BrdU (10 μM) was added during the last 18–24 h of incubation. Data were fitted with a curve described by the equation, y=Vmax × (1−(x/(K+x))), where K is equal to the IC50.
On the technique in general: Uptake of a labelled nucleoside into DNA is a usual measure of proliferation.

A further series concerns the target T4, human VEGFR2 kinase (Homo sapiens, UniProt P35968).
T4 construct: GST-fusion protein encoding the catalytic carboxyl-terminus of human VEGFR kinase 1, 2, or 3; made in house; host or cells: baculovirus expression system
The experiment in a line: VEGFR2 kinase assay (HTRF). In kind it is biochemical. Particulars: Table 1. How it is done: as §1

A further series addresses T5, EGFR (Homo sapiens, UniProt P00533).
T5 construct: Each kinase assay was conducted using purified recombinant catalytic domain of the enzyme
Description: EGFR kinase assay (scintillation proximity). In kind it is biochemical. The method, then:
as §2

The mark [2] stands for this setting: ratio of IC50 of the kinase to IC50 vs VEGFR-2.

T5 sequence (P00533 712-979 limits assumed, species assumed): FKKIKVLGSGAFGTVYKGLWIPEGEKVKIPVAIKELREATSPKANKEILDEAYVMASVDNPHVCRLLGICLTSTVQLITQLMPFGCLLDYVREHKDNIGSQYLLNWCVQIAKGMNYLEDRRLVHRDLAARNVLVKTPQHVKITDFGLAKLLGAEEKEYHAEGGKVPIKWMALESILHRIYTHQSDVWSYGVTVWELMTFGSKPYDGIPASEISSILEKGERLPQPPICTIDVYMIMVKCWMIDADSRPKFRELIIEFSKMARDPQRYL
T1 sequence (P35916 845-1173 limits assumed): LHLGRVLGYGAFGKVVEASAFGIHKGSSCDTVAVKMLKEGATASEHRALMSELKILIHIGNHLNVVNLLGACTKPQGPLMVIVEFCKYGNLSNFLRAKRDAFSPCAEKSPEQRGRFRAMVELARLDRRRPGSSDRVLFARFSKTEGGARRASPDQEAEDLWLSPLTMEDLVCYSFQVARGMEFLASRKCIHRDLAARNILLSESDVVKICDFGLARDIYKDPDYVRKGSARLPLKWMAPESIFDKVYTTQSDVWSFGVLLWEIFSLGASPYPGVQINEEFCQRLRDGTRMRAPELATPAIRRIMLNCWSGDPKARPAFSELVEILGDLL
T4 sequence (P35968 834-1162 limits assumed): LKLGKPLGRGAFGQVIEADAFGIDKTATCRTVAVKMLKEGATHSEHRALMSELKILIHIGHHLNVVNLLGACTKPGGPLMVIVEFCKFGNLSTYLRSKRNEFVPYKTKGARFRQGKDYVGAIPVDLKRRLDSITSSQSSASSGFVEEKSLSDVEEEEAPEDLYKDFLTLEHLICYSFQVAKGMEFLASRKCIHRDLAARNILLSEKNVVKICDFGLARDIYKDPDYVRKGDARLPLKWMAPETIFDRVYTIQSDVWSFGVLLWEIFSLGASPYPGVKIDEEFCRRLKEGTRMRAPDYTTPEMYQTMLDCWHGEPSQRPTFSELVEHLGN

In the case of `CCS(=O)(=O)c1ccc(OC)c(Nc2nccc(N(C)c3ccc4c(C)n[nH]c4c3)n2)c1` [GW654652, N^2-[5-(ethylsulphonyl)-2-methoxyphenyl]-N^4-methyl-N^4-(3-methyl-1H-indazol-6-yl)pyrimidine-2,4-diamine], the fraction unbound in “Protein binding” is 0.01. The IC50 against human VEGFR kinase 3 (mean±s.e.) stood at 2.5 ± 0.5 nM; at Eph-B4 (mean±s.e.), 460 ± 30 nM; against c-Fms (mean±s.e.), 530 ± 330 nM; in series [1], 110 nM; on human VEGFR2 kinase, 2.3 nM; against EGFR (mean±s.e.), 1360 ± 420 nM. In addition, the “Fold selectivity vs VEGFR-2, VEGFR-3” value at human VEGFR kinase 3 (setting [2]) is 1.1. Also, the “Fold selectivity vs VEGFR-2, Eph-B4” value at Eph-B4 (setting [2]) stood at 204. For the same compound, the “% Inhibition of tumour growth” value is recorded as 14% in the series on A375P xenograft (30 mg kg^−1 oral once daily); 49% in the series on A375P xenograft (100 mg kg^−1 oral once daily); 24% with HN5 xenograft (HN5, 10 mg kg^−1 oral once daily); 46% in the series on HN5 xenograft (HN5, 30 mg kg^−1 oral once daily); 83% in the series on HN5 xenograft (HN5, 100 mg kg^−1 oral once daily). The ED50 in the series with A375P xenograft (oral dose producing 50% inhibition of tumour growth) was determined as 114 ± 54 mg/kg/day; in the series on HN5 xenograft (HN5, oral dose producing 50% inhibition of tumour growth), 28 ± 10 mg/kg/day. Also, the “Fold selectivity vs VEGFR-2, c-Fms” value at c-Fms (setting [2]) was determined as 237. The “Fold selectivity vs VEGFR-2, EGFR” value on EGFR (setting [2]) was 605.

What is called fraction unbound is free concentration divided by total concentration. What is called IC50 is the midpoint of a concentration-inhibition curve. Broadly, the ED50 is the dose at which the effect has come halfway, by size or by number of responders. Lower therefore signals greater potency.
